Results taken from US10874108B2, “Anti-microbial compositions” (5D HEALTH PROTECTION GROUP LTD, priority 2016, dated 2020).
Where two headings read alike, the source gives them in different places.

Columns and labels:
[1] = Displacement of metals from EDTA complexes by physiological saline; assay type: physicochemical
Description: Adding saline to the suspension of Ag4(EDTA), the suspension quickly precipitated a solid (AgCl). The precipitate was filtered off, washed with deionized water 4 times; and then dried in a vacuum oven at 50° C. in a dark flask to avoid exposure to direct light.
The displacement experiment described above was repeated for compounds 1-4 to provide the percent of the displacement of silver, copper, zinc from the EDTA complexes by physiological saline.

cells [2] = system: cells
[3] = system: P. aeruginosa 24-hour CDC biofilms; test: Colonies after exposure of 24-hour CDC biofilms to EDTA compounds; assay type: cell-based
S. aureus biofilms [4] = test: CDC bioreactor biofilm LR/kill, EDTA compounds at 100 ppm silver; assay type: cell-based; conditions: 100 ppm of silver, exposed 24 hours
Description: (§1) Microbial cultures were exposed to compounds for 24 hours. Compounds were diluted according to 100 ppm of silver. Biofilms were formed using the CDC bioreactor. Samples were performed in triplicate.

P. aeruginosa biofilms [5] = test: as above; assay type: cell-based; conditions: 100 ppm of silver, exposed 24 hours
Description: as §1

cells [6] = test: Indirect cytotoxicity, agar diffusion method
[7] = system: S. aureus 24-hour CDC biofilms; test: Colonies after exposure of 24-hour CDC biofilms to EDTA compounds; assay type: cell-based
cells [8] = test: Direct cytotoxicity, Neutral Red Uptake assay
cells [9] = system: cells; remark: listed apart in the source
[10] = system: S. aureus MRSA BAA-43 biofilm; test: MBEC model (ASTM E2799), liquid formulas; assay type: cell-based; conditions: 4%, treated 24 hours
Description: (§2) The MBEC model (ASTM E2799) was used to assess the anti-biofilm efficacy of the liquid formulas. Biofilms were grown on polystyrene pegs in the MBEC model for either 24 or 48 hours before treatment. Using the liquid form of the EDTA complexes 24- and 48-hour biofilms were tested (Table 20).
(§3) 24- and 48-hour biofilms were formed using MBEC plate method and treated for 24 hours. Technical replicates n=3. Log reduction (LR) values show±standard error (SE) of LR value.

[11] = system: E. faecalis ATCC 29212 biofilm; test: MBEC model (ASTM E2799), liquid formulas; assay type: cell-based; conditions: 4%, treated 24 hours
Description: as §2, §3

[12] = system: P. aeruginosa NCTC 10662 biofilm; test: MBEC model (ASTM E2799), liquid formulas; assay type: cell-based; conditions: 4%, treated 24 hours; for LR: hydrate
Description: as §2, §3

[13] = system: S. aureus ATCC 29213 biofilm; test: MBEC model (ASTM E2799), liquid formulas; assay type: cell-based; conditions: 4%, treated 24 hours
Description: as §2, §3

[14] = system: S. epidermidis ATCC 35984 biofilm; test: MBEC model (ASTM E2799), liquid formulas; assay type: cell-based; conditions: 4%, treated 24 hours
Description: as §2, §3

[15] = system: P. aeruginosa 24-hour biofilm
Description: (§4) Minimum inhibitory concentration (MIC), minimum biocidal concentration (MBC) and minimum biofilm eradication (MBEC) were determined. Values represent a percentage of the stock antimicrobial solution (8%).

[16] = system: S. aureus 24-hour biofilm
Description: as §4

S. aureus biofilms [17] = conditions: 4%
Description: (§5) The Mean Log10 density of untreated controls was calculated (±standard deviation).

P. aeruginosa biofilms [18] = conditions: 4%
Description: as §5

[19] = 24-Hour Biofilms, Treatment Time 1
[20] = 24-Hour Biofilms, Treatment Time 5
[21] = 24-Hour Biofilms, Treatment Time 15
[22] = 72-Hour Biofilms, Treatment Time 1
[23] = 72-Hour Biofilms, Treatment Time 5
[24] = 72-Hour Biofilms, Treatment Time 15

Compound: O=C([O-])CN(CCN(CC(=O)[O-])CC(=O)[O-])CC(=O)[O-].[Ag+].[Na+].[Zn+2] [Compound 3, AgZnNaEDTA]
- Displacement (%) Silver [1]: 82.32 ± 5.63%
- Displacement (%) Zinc [1]: 47.33 ± 13.29 %
- percentage viability (cells [2]): 46.46-63.08%
- Number of colonies detected [3]: 0 Cfu/ml
- Kill % (S. aureus biofilms [4]): 100%
- Kill % (P. aeruginosa biofilms [5]): 99.97%
- LR (P. aeruginosa biofilms [5]): 3.51 ± 0.04
- LR (P. aeruginosa biofilms [5]; listed as Ag/Zn/NaEDTA): 3.5
- Lysis Index (cells [6]; 25 ppm): 1
- Zone Index (cells [6]; 25 ppm): 2
- Lysis Index (cells [6]; 50 ppm): 1
- Zone Index (cells [6]; 50 ppm): 2
- Lysis Index (cells [6]; 100 ppm): 1
- Zone Index (cells [6]; 100 ppm): 3
- Number of colonies detected [7]: 0 Cfu/ml

Compound: O=C([O-])CN(CCN(CC(=O)[O-])CC(=O)[O-])CC(=O)[O-].[Ag+].[Ag+].[Cu+2] [Compound 2, Ag2CuEDTA]
- Displacement (%) Copper [1]: 41.37 ± 6.92%
- Displacement (%) Silver [1]: 77.99 ± 3.90%
- Number of colonies detected [3]: 0 Cfu/ml
- Kill % (S. aureus biofilms [4]): 99.99%
- LR (S. aureus biofilms [4]): 4.0 ± 0.20
- Kill % (P. aeruginosa biofilms [5]): 99.95%
- LR (P. aeruginosa biofilms [5]): 3.31 ± 0.01
- Lysis Index (cells [6]; 25 ppm): 1
- Zone Index (cells [6]; 25 ppm): 2
- Lysis Index (cells [6]; 50 ppm): 1
- Zone Index (cells [6]; 50 ppm): 2
- Lysis Index (cells [6]; 100 ppm): 1
- Zone Index (cells [6]; 100 ppm): 2
- Interpretation (cells [8]; 25 ppm): Non cytotoxic (if the percentage viability is less than 70% of the untreated control, then the substance is considered cytotoxic)
- Percentage of Control/Percentage Viability (%) (cells [8]; 25 ppm): 72.21 ± 3.74%
- Interpretation (cells [8]; 50 ppm): Non cytotoxic (if the percentage viability is less than 70% of the untreated control, then the substance is considered cytotoxic)
- Percentage of Control/Percentage Viability (%) (cells [8]; 50 ppm): 72.01 ± 7.41%
- Interpretation (cells [8]; 100 ppm): Non cytotoxic (if the percentage viability is less than 70% of the untreated control, then the substance is considered cytotoxic)
- Percentage of Control/Percentage Viability (%) (cells [8]; 100 ppm): 72.09 ± 17.57%
- Number of colonies detected [7]: 0 Cfu/ml

Compound: Oc1ccccc1 [Phenol]
- Lysis Index (cells [9]): 3
- Zone Index (cells [9]): 5

Compound: O=C([O-])CN(CCN(CC(=O)[O-])CC(=O)[O-])CC(=O)[O-].[Ag+].[Cu+2].[Na+] [Compound 1, AgCuNaEDTA]
- Displacement (%) Copper [1]: 53.49 ± 5.56%
- Displacement (%) Silver [1]: 81.37 ± 4.29%
- Kill % (S. aureus biofilms [4]): 100%
- Kill % (P. aeruginosa biofilms [5]): 99.99%
- LR (P. aeruginosa biofilms [5]): 3.88 ± 0.15
- LR (P. aeruginosa biofilms [5]; listed as Ag/Cu/NaEDTA): 3.5
- Lysis Index (cells [6]; 25 ppm): 1
- Zone Index (cells [6]; 25 ppm): 2
- Lysis Index (cells [6]; 50 ppm): 1
- Zone Index (cells [6]; 50 ppm): 3
- Lysis Index (cells [6]; 100 ppm): 1
- Zone Index (cells [6]; 100 ppm): 3
- Interpretation (cells [8]; 25 ppm): Cytotoxic (if the percentage viability is less than 70% of the untreated control, then the substance is considered cytotoxic)
- Percentage of Control/Percentage Viability (%) (cells [8]; 25 ppm): 51.54 ± 9.44%
- Interpretation (cells [8]; 50 ppm): Cytotoxic (if the percentage viability is less than 70% of the untreated control, then the substance is considered cytotoxic)
- Percentage of Control/Percentage Viability (%) (cells [8]; 50 ppm): 53.66 ± 9.48%
- Interpretation (cells [8]; 100 ppm): Cytotoxic (if the percentage viability is less than 70% of the untreated control, then the substance is considered cytotoxic)
- Percentage of Control/Percentage Viability (%) (cells [8]; 100 ppm): 52.57 ± 8.97%

Compound: O=C([O-])CN(CCN(CC(=O)[O-])CC(=O)[O-])CC(=O)[O-].[Cu+2].[Na+].[Na+] [Cu—Na-EDTA, reference compound]
- Number of colonies detected [3]: 0 Cfu/ml
- Number of colonies detected [7]: 0 Cfu/ml

Compound: O.O=C([O-])CN(CCN(CC(=O)[O-])CC(=O)[O-])CC(=O)[O-].[Na+].[Na+].[Na+].[Na+] [Tetrasodium EDTA, ethylenediaminetetraacetic acid tetrasodium salt hydrate]
- Kill % ([10]; 24-Hour Biofilm): 100%
- LR ([10]; 24-Hour Biofilm): 5.40
- Kill % ([10]; 48-Hour Biofilm): 100%
- LR ([10]; 48-Hour Biofilm): 6.43
- Kill % ([11]; 24-Hour Biofilm): 100%
- LR ([11]; 24-Hour Biofilm): 6.35
- Kill % ([11]; 48-Hour Biofilm): 100%
- LR ([11]; 48-Hour Biofilm): 6.40
- Kill % ([12]; 24-Hour Biofilm): 99.9998%
- LR ([12]; 24-Hour Biofilm): 5.94±3.43
- LR ([12]; 24-Hour Biofilm, listed as tEDTA): 5.94 ± 3.43
- Kill % ([12]; 48-Hour Biofilm): 99.9999%
- LR ([12]; 48-Hour Biofilm): 6.99±4.04
- LR ([12]; 48-Hour Biofilm, listed as tEDTA): 6.99 ± 4.04
- Kill % ([13]; 24-Hour Biofilm): 100%
- LR ([13]; 24-Hour Biofilm): 6.44
- Kill % ([13]; 48-Hour Biofilm): 100%
- LR ([13]; 48-Hour Biofilm): 6.50
- Kill % ([14]; 24-Hour Biofilm): 100%
- LR ([14]; 24-Hour Biofilm): 6.09
- Kill % ([14]; 48-Hour Biofilm): 100%
- LR ([14]; 48-Hour Biofilm): 6.41
- MBC ([15]; 1 min): 50 percentage of the stock antimicrobial solution (8%)
- MIC ([15]; 1 min): 25 percentage of the stock antimicrobial solution (8%)
- MBC ([15]; 30 min): 50 percentage of the stock antimicrobial solution (8%)
- MIC ([15]; 30 min): 12.5 percentage of the stock antimicrobial solution (8%)
- MBC ([15]; 1 h): 25 percentage of the stock antimicrobial solution (8%)
- MBEC ([15]; 1 h): 6.25 percentage of the stock antimicrobial solution (8%)
- MIC ([15]; 1 h): 25 percentage of the stock antimicrobial solution (8%)
- MBC ([15]; 24 h): 6.25 percentage of the stock antimicrobial solution (8%)
- MBEC ([15]; 24 h): 6.25 percentage of the stock antimicrobial solution (8%)
- MIC ([15]; 24 h): 6.25 percentage of the stock antimicrobial solution (8%)
- MBC ([16]; 1 min): 50 percentage of the stock antimicrobial solution (8%)
- MIC ([16]; 1 min): 25 percentage of the stock antimicrobial solution (8%)
- MBC ([16]; 30 min): 50 percentage of the stock antimicrobial solution (8%)
- MIC ([16]; 30 min): 12.5 percentage of the stock antimicrobial solution (8%)
- MBC ([16]; 1 h): 25 percentage of the stock antimicrobial solution (8%)
- MBEC ([16]; 1 h): 6.25 percentage of the stock antimicrobial solution (8%)
- MIC ([16]; 1 h): 25 percentage of the stock antimicrobial solution (8%)
- MBC ([16]; 24 h): 6.25 percentage of the stock antimicrobial solution (8%)
- MBEC ([16]; 24 h): 6.25 percentage of the stock antimicrobial solution (8%)
- MIC ([16]; 24 h): 6.25 percentage of the stock antimicrobial solution (8%)
- Kill % (S. aureus biofilms [17]; [19]): 97.41%
- LR (S. aureus biofilms [17]; [19]): 1.59 ± 1.56
- Kill % (S. aureus biofilms [17]; [20]): 59.90%
- LR (S. aureus biofilms [17]; [20]): 0.40 ± 0.05
- Kill % (S. aureus biofilms [17]; [21]): 80.51%
- LR (S. aureus biofilms [17]; [21]): 0.71 ± 0.11
- Kill % (S. aureus biofilms [17]; [22]): 54.09%
- LR (S. aureus biofilms [17]; [22]): 0.34 ± 0.37
- Kill % (S. aureus biofilms [17]; [23]): 79.86%
- LR (S. aureus biofilms [17]; [23]): 0.70 ± 0.05
- Kill % (S. aureus biofilms [17]; [24]): 80.25%
- LR (S. aureus biofilms [17]; [24]): 0.70 ± 0.02
- Kill % (P. aeruginosa biofilms [18]; [19]): 83.018%
- LR (P. aeruginosa biofilms [18]; [19]): 0.77 ± 0.08
- Kill % (P. aeruginosa biofilms [18]; [20]): 97.92%
- LR (P. aeruginosa biofilms [18]; [20]): 1.68 ± 0.05
- Kill % (P. aeruginosa biofilms [18]; [21]): 99.51%
- LR (P. aeruginosa biofilms [18]; [21]): 2.31 ± 0.10
- Kill % (P. aeruginosa biofilms [18]; [22]): 99.22%
- LR (P. aeruginosa biofilms [18]; [22]): 2.10 ± 0.05
- Kill % (P. aeruginosa biofilms [18]; [23]): 99.56%
- LR (P. aeruginosa biofilms [18]; [23]): 2.35 ± 0.02
- Kill % (P. aeruginosa biofilms [18]; [24]): 95.07%
- LR (P. aeruginosa biofilms [18]; [24]): 1.31 ± 0.12
